Consider one compound from paper PMC12775434, “Ultra-large virtual screening unveils potent agonists of the neuromodulatory orphan receptor GPR139” (Nature Communications, 2025).

Each structure is given as a SMILES string. “And” between values parts separate entries of the source, which are not always exact repeats. Identical values can stand only once.

One assay deals with T1, GPR139 (Gi2 activation) (Homo sapiens, UniProt Q6DWJ6).
T1 construct: expressed in transfected cells; host or cells: HEK293A (transient, Lipofectamine 2000)
T1 sequence (Q6DWJ6 1-353): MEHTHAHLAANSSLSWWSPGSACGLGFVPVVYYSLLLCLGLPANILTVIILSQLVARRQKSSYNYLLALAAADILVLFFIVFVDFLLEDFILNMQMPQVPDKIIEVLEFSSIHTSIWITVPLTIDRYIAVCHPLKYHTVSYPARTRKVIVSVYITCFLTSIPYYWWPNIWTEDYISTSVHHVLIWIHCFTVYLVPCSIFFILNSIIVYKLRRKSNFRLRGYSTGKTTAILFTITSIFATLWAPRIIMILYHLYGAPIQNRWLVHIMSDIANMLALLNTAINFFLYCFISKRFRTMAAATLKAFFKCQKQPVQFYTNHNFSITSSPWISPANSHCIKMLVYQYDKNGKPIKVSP
The assay can be described thus: BRET G protein activation (dissociation) assay, Gi2, HEK293A. Particulars: for G protein activation, Gi2: individual replicates. The format is cell-based. On the procedure:
(§1) Primary screening and pharmacological characterization of compounds were performed using a CHO-K1 cell line that stably expresses human GPR139 (GPR139-CHOk1). The GPR139-CHOk1 cell line was kindly provided by H. Lundbeck A/S, Denmark[24]. GPR139-CHOk1 cells were grown in Ham’s F-12 Kaighn’s Modification Medium (ThermoFisher #21127030) supplemented with 10% dialyzed fetal bovine serum (US origin, ThermoFisher #26400044), 100 units/mL Penicillin-Streptomycin (ThermoFisher #15140122), and 1 mg/mL Geneticin (ThermoFisher #11811031). […] M1R-CHOk1 cells were purchased from The Missouri S&T cDNA Resource Center (#CEM100TN00). M1R-CHOk1 cells were grown in Ham’s F12 Medium (ThermoFisher #21765029) supplemented with 10% fetal bovine serum (Brazilian origin, ThermoFisher #10270106), 100 units/mL Penicillin-Streptomycin, and 0.25 mg/mL Geneticin. HEK293A cells transiently transfected with GPR139 were used for additional pharmacological assessment of signaling pathways activated by GPR139. HEK239A cells were generously provided by Dr. Asuka Inoue, Tohoku University, Japan. HEK293A cells were grown in Dulbecco’s Modified Eagle Medium (ThermoFisher #31966047) supplemented with 10% dialyzed fetal bovine serum and 100 units/mL Penicillin-Streptomycin. Cell lines were maintained at 37 °C in humidified incubator equilibrated with 5% CO2.
(§2) The G protein dissociation assay developed by the lab of Kirill A. Martemyanov was used to measure the coupling of multiple G proteins by GPR139[57]. The assay was performed as described previously with minor modifications. HEK293A cells were reverse transfected 20–24 h prior to assay. 50,000 cells were plated in each well of white opaque tissue culture treated 96-well plates (PerkinElmer #6005680) previously coated with poly-D-lysine. Transfection solutions were prepared as described, and 10 µL transfection solution was mixed with 100 µL cells in each well. The cells in each well were transfected with 18.9 ng GPR139, 6.3 ng Venus 1-155 Gγ2, 6.3 ng Venus 159-239 Gβ1, 6.3 ng masGRK3ct-NanoLuc and 12.6 ng Gαi2, 12.6 ng Gαi3, 12.6 ng GαoA, 12.6 ng Gαq or 25.2 ng Gα12 using 375 nL Lipofectamine 2000 Transfection Reagent. Transfections with Gαq and Gα12 contained 6.3 ng DNA of the active subunit S1 of pertussis toxin (PTX-S1). Each transfection was normalized to 150 ng total DNA with pcDNA3.1. The BRET biosensors were a kind gift from the Martemyanov lab. On the day of the experiment the cells were washed with HEPES buffer. Test compounds were diluted in HEPES buffer from DMSO stocks (final DMSO concentration of maximally 0.3%). NanoLuc Luciferase substrate NanoGlo—furimazine (Promega #N1120) was diluted 1000-fold (final) in HEPES buffer. NanoGlo and test compounds were added, and measurements were performed after 10 s for Gi3, 15 s for Gi2 and GoA, 20 s for Gq, and 90 s for G12—the timepoint where maximal signal occurred with each G protein, ensuring proper determination of the potency for the G protein coupling. Simultaneous dual emission was measured at 535 nm and 475 nm on LUMIstar Omega Microplate Reader (BMG Labtech) at room temperature. The BRET ratio of 535 nm/475 nm (Venus/NanoLuc), reflecting the dissociation of the G protein heterotrimer, was used to determine the G protein activation. The basal BRET ratio obtained with buffer condition was subtracted from the absolute BRET ratio at a given test compound concentration, and the responses were normalized to the one obtained with 10 µM JNJ-63533054 for the activation of Gi2.
(§3) Pharmacological data and statistical analyses were performed in GraphPad Prism v9–10 (Graphpad Software Inc., San Diego, CA), which are also specifically described in the figure and table legends. […]
Background: BRET reads energy transfer from a luciferase to a nearby fluorophore.

A further assay has as its target T2, GPR139 (Gq activation) (Homo sapiens, UniProt Q6DWJ6).
T2 construct: expressed in transfected cells; host or cells: HEK293A (transient, Lipofectamine 2000)
T2 sequence (Q6DWJ6 1-353): T1 sequence (Q6DWJ6 1-353)
The assay can be described thus: BRET G protein activation (dissociation) assay, Gq, HEK293A. The format is cell-based. The settings on record: for G protein activation, Gq: individual replicates. On the procedure:
as §1, §2, §3

Setting [1] is: HEK293-A, normalized to JNJ-63533054 (JNJ(S)).

What is called Emax is the greatest response seen or fitted, relative to the assay's reference. Regarding `C[C@@H](NC(=O)CNC(=O)c1cccc(Cl)c1)c1ccccc1` [JNJ(R), reference compound], the Emax on GPR139 (Gi2 activation) (setting [1]) worked out at 86 ± 4%; on GPR139 (Gq activation) (setting [1]) it was 22 ± 8%. Moreover, the EC50 was 3.98 µM on GPR139 (Gi2 activation) (Supplementary Table 6, read-out: pEC50 Gi2 (converted)) and 10 µM on GPR139 (Gq activation) (Supplementary Table 6). Further, the “G protein activation, Gi2” value was 73 % of JNJ-63533054 at Gi2 and 81 % of JNJ-63533054 at Gi2 and 77 % of JNJ-63533054 at Gi2 on GPR139 (Gi2 activation) (log [compound] M -4.5); 61 % of JNJ-63533054 at Gi2 and 62 % of JNJ-63533054 at Gi2 and 65 % of JNJ-63533054 at Gi2 on GPR139 (Gi2 activation) (log [compound] M -5.0); 41 % of JNJ-63533054 at Gi2 and 43 % of JNJ-63533054 at Gi2 and 42 % of JNJ-63533054 at Gi2 on GPR139 (Gi2 activation) (log [compound] M -5.5); 16 % of JNJ-63533054 at Gi2 and 23 % of JNJ-63533054 at Gi2 and 21 % of JNJ-63533054 at Gi2 at GPR139 (Gi2 activation) (log [compound] M -6.0); 6 % of JNJ-63533054 at Gi2 and 7 % of JNJ-63533054 at Gi2 and 10 % of JNJ-63533054 at Gi2 on GPR139 (Gi2 activation) (log [compound] M -6.5); -0.885 % of JNJ-63533054 at Gi2 and 0.48 % of JNJ-63533054 at Gi2 and 10 % of JNJ-63533054 at Gi2 at GPR139 (Gi2 activation) (log [compound] M -7.0). In addition, the “G protein activation, Gi2” value at GPR139 (Gi2 activation) (log [compound] M -7.5) is 0.698 % of JNJ-63533054 at Gi2 and -1 % of JNJ-63533054 at Gi2 and 11 % of JNJ-63533054 at Gi2; at GPR139 (Gi2 activation) (log [compound] M -8.0), -0.866 % of JNJ-63533054 at Gi2 and -1.55 % of JNJ-63533054 at Gi2 and 11 % of JNJ-63533054 at Gi2. Further, the “G protein activation, Gq” value at GPR139 (Gq activation) (log [compound] M -4.5) was 17 % of JNJ-63533054 at Gi2 and 24 % of JNJ-63533054 at Gi2 and 7.59 % of JNJ-63533054 at Gi2; at GPR139 (Gq activation) (log [compound] M -5.0), 12 % of JNJ-63533054 at Gi2 and 15 % of JNJ-63533054 at Gi2 and 4 % of JNJ-63533054 at Gi2; at GPR139 (Gq activation) (log [compound] M -5.5), 8 % of JNJ-63533054 at Gi2 and 7 % of JNJ-63533054 at Gi2 and -2.15 % of JNJ-63533054 at Gi2; at GPR139 (Gq activation) (log [compound] M -6.0), 6.62 % of JNJ-63533054 at Gi2 and 3 % of JNJ-63533054 at Gi2 and -1.3 % of JNJ-63533054 at Gi2; at GPR139 (Gq activation) (log [compound] M -6.5), 3.64 % of JNJ-63533054 at Gi2 and 0.578 % of JNJ-63533054 at Gi2 and -0.535 % of JNJ-63533054 at Gi2; at GPR139 (Gq activation) (log [compound] M -7.0) it was 0.442 % of JNJ-63533054 at Gi2 and -1.25 % of JNJ-63533054 at Gi2 and -2 % of JNJ-63533054 at Gi2. Besides, the “G protein activation, Gq” value is 0.442 % of JNJ-63533054 at Gi2 and 0.122 % of JNJ-63533054 at Gi2 and 2.16 % of JNJ-63533054 at Gi2 on GPR139 (Gq activation) (log [compound] M -7.5); -2 % of JNJ-63533054 at Gi2 and -0.213 % of JNJ-63533054 at Gi2 and 1.37 % of JNJ-63533054 at Gi2 on GPR139 (Gq activation) (log [compound] M -8.0).
